Holding throughout (assay type): biochemical
For one test, the target named is T1, AKT3 (Homo sapiens, UniProt Q9Y243).
T1 construct: purchased SignalChem
Put plainly: AKT Kinase Assay (IMAP fluorescent polarisation) vs AKT3. To be noted: activated AKT3, FAM Crosstide substrate. On the procedure:
(§1) Testing of the compounds was performed using an AKT Kinase Assay:
(§2) Activated AKT isoforms 1, 2 and 3 were assayed utilising a 5′ FAM Crosstide (Seq. GRPRTSSFAEG-OH). The extent of kinase phosphorylation was determined by fluorescent polarisation using IMAP progressive binding reagent, which introduces binding beads which allow the reagent to specifically bind to phosphate residues via covalent co-ordination complex bonds.
(§3) iMAP binding solution stops Crosstide/kinase interaction and specifically binds phosphorylated substrates. The degree of phosphorylation is determined by fluorescent polarisation (excitation 485 nm; emission 528 nm) or the reduction in speed of rotation of the excited substrate.
(§4) The following materials were used in the assay: • a) Activated AKT isoforms (SignalChem.) dissolved in Complete Reaction buffer at a pre-determined concentration selected so that the assay was carried out in the linear range. • b) AKT substrate peptide: FAM Crosstide (R7110) Molecular Devices, diluted in complete reaction buffer. • c) iMAP Progressive Screening Express Kit (R8127) Molecular Devices • d) Complete Reaction Buffer containing 0.1% BSA, 10 mM Tris-HCl, 10 mM MgCl2, 0.05% NaN3 and 0.01% phosphate free BSA, 1 mM DTT • e) Progressive Binding Solution containing 75% Buffer A, 25% Buffer B and low volume Binding Reagent which contains the binding entity for the assay • f) ATP diluted in complete reaction buffer • g) Black polystyrene 384 well assay plates (Nunc). • h) Biotek Synergy 4 Hybrid Plate reader.
(§5) 5 μl of test compound was dissolved in DMSO (Sigma Aldrich) and serially diluted in complete reaction buffer to give a fourteen point half log dose response and plated into 384 well black plates. The compound was incubated at room temperature with activated AKT isoform (5 μl) at the pre-determined concentration, for 45 minutes.
(§6) 2.5 μl of ATP solution mixed with 2.5 μl of AKT substrate peptide (FAM Crosstide (R7110) Molecular Devices) were dispensed into each well and the plate centrifuged at 1000 rpm for 20 seconds to ensure homogenous mixing of reagents. The reaction mix was incubated in the dark for one hour at room temperature.
(§7) The kinase reaction was stopped by the addition of Progressive Binding Solution and the mixture allowed to equilibrate for one hour in the dark, at room temperature.
(§8) The fluorescent polarisation generated in each well was determined using a […] Synergy 4 Hybrid plate reader. In brief, each reaction solution was excited at 485 nm with the emission measured at 528 nm in both the parallel and perpendicular pathway.
(§9) The polarisation value generated in each well was calculated by Gen5 software (Biotek) and the % inhibition of kinase activity compared to vehicle control was calculated via GraphPad Prism. IC50 values for each compound were calculated by non-linear regression analysis using Prism software.
(§10) All plates were internally controlled by two methods. Firstly, by calculating the signal:noise ratio; based on kinase polarisation without inhibitor and polarisation generated by complete reaction buffer in the absence of activated kinase. Secondly by determining IC50 values generated by known inhibitors of the AKT isoforms.

The target in the next test is T2, AKT2 (Homo sapiens, UniProt P31751).
T2 construct: purchased SignalChem
T2 sequence (P31751 whole entry): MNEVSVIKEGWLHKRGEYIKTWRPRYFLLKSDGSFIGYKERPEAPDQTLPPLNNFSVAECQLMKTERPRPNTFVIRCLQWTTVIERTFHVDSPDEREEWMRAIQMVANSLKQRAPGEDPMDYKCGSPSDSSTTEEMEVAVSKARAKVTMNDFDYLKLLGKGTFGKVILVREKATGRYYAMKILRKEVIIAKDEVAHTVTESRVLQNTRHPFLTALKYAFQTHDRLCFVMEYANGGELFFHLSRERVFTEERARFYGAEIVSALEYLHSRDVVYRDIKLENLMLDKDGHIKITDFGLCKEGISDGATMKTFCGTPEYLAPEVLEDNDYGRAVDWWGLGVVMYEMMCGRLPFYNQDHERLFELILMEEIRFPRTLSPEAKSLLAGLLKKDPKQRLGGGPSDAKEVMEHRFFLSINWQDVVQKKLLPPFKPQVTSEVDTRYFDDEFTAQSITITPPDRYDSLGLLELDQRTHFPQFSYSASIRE
Put plainly: AKT Kinase Assay (IMAP fluorescent polarisation) vs AKT2. To be noted: activated AKT2, FAM Crosstide substrate. The procedure: as §1, §2, §3, §4, §5, §6, §7, §8, §9, §10

A further test deals with T3, AKT1 (Homo sapiens, UniProt P31749).
T3 construct: purchased SignalChem
T3 sequence (P31749 whole entry): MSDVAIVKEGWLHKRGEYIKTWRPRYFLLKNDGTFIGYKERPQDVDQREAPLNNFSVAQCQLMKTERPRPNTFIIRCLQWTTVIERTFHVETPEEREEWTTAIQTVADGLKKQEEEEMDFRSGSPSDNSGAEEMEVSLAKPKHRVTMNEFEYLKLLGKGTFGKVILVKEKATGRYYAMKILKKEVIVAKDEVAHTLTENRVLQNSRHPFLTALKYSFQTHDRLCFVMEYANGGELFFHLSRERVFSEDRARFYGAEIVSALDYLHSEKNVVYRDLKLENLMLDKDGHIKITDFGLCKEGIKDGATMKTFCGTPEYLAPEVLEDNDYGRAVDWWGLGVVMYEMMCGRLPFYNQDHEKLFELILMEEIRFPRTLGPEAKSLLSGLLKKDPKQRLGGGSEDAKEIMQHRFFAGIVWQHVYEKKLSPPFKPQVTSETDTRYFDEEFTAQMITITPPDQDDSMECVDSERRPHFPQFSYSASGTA
Put plainly: AKT Kinase Assay (IMAP fluorescent polarisation) vs AKT1. To be noted: activated AKT1, FAM Crosstide substrate. On the procedure:
as §1, §2, §3, §4, §5, §6, §7, §8, §9, §10

pIC50: −log10 of the molar value. Where a name gives a salt, the structure may show the parent alone.

As usually defined, the pIC50 is the negative decadic logarithm of the IC50, by convention in mol/L.

T1 sequence (Q9Y243 whole entry): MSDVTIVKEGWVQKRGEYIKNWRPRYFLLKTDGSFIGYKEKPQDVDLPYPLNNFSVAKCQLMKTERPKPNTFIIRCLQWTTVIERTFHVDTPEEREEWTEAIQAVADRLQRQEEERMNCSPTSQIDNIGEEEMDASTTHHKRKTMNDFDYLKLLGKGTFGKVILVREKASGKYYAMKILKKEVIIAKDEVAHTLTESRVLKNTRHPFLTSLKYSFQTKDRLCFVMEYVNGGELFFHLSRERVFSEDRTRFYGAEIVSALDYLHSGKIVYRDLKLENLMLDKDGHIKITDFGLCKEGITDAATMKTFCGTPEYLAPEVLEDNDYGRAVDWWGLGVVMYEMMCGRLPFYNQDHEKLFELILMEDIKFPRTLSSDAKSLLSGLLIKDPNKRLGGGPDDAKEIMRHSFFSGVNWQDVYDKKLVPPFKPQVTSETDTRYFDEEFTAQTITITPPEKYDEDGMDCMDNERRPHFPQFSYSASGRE

For `NC1(c2ccc(-c3c(-c4ccccc4)oc4c(C(=O)O)cccc4c3=O)cc2)CCC1` [Example 107, 3-[4-(1-Amino-cyclobutyl)-phenyl]-4-oxo-2-phenyl-4H-chromene-8-carboxylic acid. trifluoro-acetic acid], the pIC50 was below 5.00 on AKT3, below 5.00 at AKT2 and 5.00 to 6.00 at AKT1.
For the compound `C#Cc1cccc2c(=O)c(-c3ccc(C4(N)CCC4)cc3)c(-c3ccccc3)oc12` [Example 105, 3-[4-(1-Amino-cyclobutyl)-phenyl]-8-ethynyl-2-phenyl-chromen-4-one], the pIC50 at AKT3 was 5.00 to 6.00; on AKT2 it was 5.00 to 6.00; at AKT1, at least 6.00.
With `CON=c1c(-c2ccc(C3(N)CCC3)cc2)c(-c2ccccc2)oc2ccccc12` [Example 66, 3-[4-(1-Amino-cyclobutyl)-phenyl]-2-phenyl-chromen-4-one O-methyl-oxime], the values for the pIC50 at AKT3, at AKT2 and at AKT1 were below 5.00, 5.00 to 6.00 and at least 6.00, respectively.
For the compound `NC1(c2ccc(-c3c(-c4ccccc4)oc4cc(OC(F)(F)F)ccc4c3=O)cc2)CCC1` [Example 24, 3-[4-(1-Amino-cyclobutyl)-phenyl]-2-phenyl-7-trifluoromethoxy-chromen-4-one], the figures for the pIC50 at AKT3, on AKT2 and on AKT1 were below 5.00, 5.00 to 6.00 and below 5.00, respectively.
Turning to `COc1ccc2c(=O)c(-c3ccc(C4(N)CCC4)cc3)c(-c3ccccc3)oc2c1-c1cn[nH]c1` [Example 79, 3-[4-(1-Amino-cyclobutyl)-phenyl]-7-methoxy-2-phenyl-8-(1H-pyrazol-4-yl)-chromen-4-one], the pIC50 at AKT3, at AKT2 and on AKT1 was at least 6.00 in each case.
On to `NC1(c2ccc(-c3c(-c4ccccc4)oc4c(=O)n(CCO)ccc4c3=O)cc2)CCC1` [Example 43, 3-[4-(1-Amino-cyclobutyl)-phenyl]-7-(2-hydroxy-ethyl)-2-phenyl-7H-pyrano[2,3-c]pyridine-4,8-dione hydrochloride], for which the pIC50 at AKT3, at AKT2 and on AKT1 was below 5.00 in each case.
`NC1(c2ccc(-c3c(-c4ccccc4)oc4c(Cl)nccc4c3=O)cc2)CCC1` [Example 42, 3-[4-(1-Amino-cyclobutyl)-phenyl]-8-chloro-2-phenyl-pyrano[2,3-c]pyridin-4-one hydrochloride]: the values for the pIC50 on AKT3, at AKT2 and on AKT1 were 5.00 to 6.00, at least 6.00 and at least 6.00, respectively.
Take `COc1ccc2c(=O)c(-c3ccc(C4(N)CCC4)cc3)c(-c3ccccc3)oc2n1` [Example 35, 3-[4-(1-Amino-cyclobutyl)-phenyl]-7-methoxy-2-phenyl-pyrano[2,3-b]pyridin-4-one hydrochloride]: the pIC50 at AKT3, on AKT2 and at AKT1 was 5.00 to 6.00 throughout.
Consider `N#Cc1nccc2c(=O)c(-c3ccc(C4(N)CCC4)cc3)c(-c3ccccc3)oc12` [Example 127, 3-(4-(1-aminocyclobutyl)phenyl)-4-oxo-2-phenyl-4H-pyrano[2,3-c]pyridine-8-carbonitrile], for which the pIC50 at AKT3 is below 5.00; on AKT2 it was 5.00 to 6.00; at AKT1 it was at least 6.00.
Consider `NC1(c2ccc(-c3c(-c4ccccc4)oc4ccc(-n5ccnc5)cc4c3=O)cc2)CCC1` [Example 22, 3-[4-(1-Amino-cyclobutyl)-phenyl]-6-imidazol-1-yl-2-phenyl-chromen-4-one], for which the pIC50 on AKT3 is below 5.00; on AKT2, 5.00 to 6.00; on AKT1 it was 5.00 to 6.00.
As for `NC1(c2ccc(-c3c(-c4ccccc4)oc4c(C5CC5)cccc4c3=O)cc2)CCC1` [Example 54, 3-[4-(1-Amino-cyclobutyl)-phenyl]-8-cyclopropyl-2-phenyl-chromen-4-one hydrochloride], the pIC50 at AKT3 was 5.00 to 6.00; at AKT2, at least 6.00; on AKT1, at least 6.00.
Turning to `CCc1nn(C)c2c1ccc1c(=O)c(-c3ccc(C4(N)CCC4)cc3)c(-c3ccccc3)oc12` [Example 98, 7-[4-(1-Amino-cyclobutyl)-phenyl]-3-ethyl-1-methyl-8-phenyl-1H-9-oxa-1,2-diaza-cyclopenta[a]naphthalen-6-one hydrochloride], the pIC50 at AKT3 was 5.00 to 6.00; on AKT2, at least 6.00; at AKT1, at least 6.00.
With `COc1cc2oc(-c3ccccc3)c(-c3ccc(C4(N)CCC4)cc3)c(=O)c2cc1C#N` [Example 11, 3-[4-(1-Amino-cyclobutyl)-phenyl]-7-methoxy-4-oxo-2-phenyl-4H-chromene-6-carbonitrile], the values for the pIC50 on AKT3, on AKT2 and at AKT1 were below 5.00, 5.00 to 6.00 and 5.00 to 6.00, respectively.
On to `CC(C)Cn1cc(-c2nccc3c(=O)c(-c4ccc(C5(N)CCC5)cc4)c(-c4ccccc4)oc23)cn1` [Example 117, 3-(4-(1-aminocyclobutyl)phenyl)-8-(1-isobutyl-1H-pyrazol-4-0)-2-phenyl-4H-pyrano[2,3-c]pyridin-4-one], for which the pIC50 on AKT3 is 5.00 to 6.00; at AKT2, at least 6.00; on AKT1, at least 6.00.
Turning to `CC(C)n1ncc2ccc3c(=O)c(-c4ccc(C5(N)CCC5)cc4)c(-c4ccccc4)oc3c21` [Example 83, 7-[4-(1-Amino-cyclobutyl)-phenyl]-1-isopropyl-8-phenyl-1H-9-oxa-1,2-diaza-cyclopenta[a]naphthalen-6-one hydrochloride], the figures for the pIC50 on AKT3, at AKT2 and on AKT1 were 5.00 to 6.00, at least 6.00 and at least 6.00, respectively.
In the case of `NC1(c2ccc(-c3c(-c4ccccc4)oc4c(ccc5cnn(CCO)c54)c3=O)cc2)CCC1` [Example 85, 7-[4-(1-Amino-cyclobutyl)-phenyl]-1-(2-hydroxy-ethyl)-8-phenyl-1H-9-oxa-1,2-diaza-cyclopenta[a]naphthalen-6-one hydrochloride], the results for the pIC50 on AKT3, on AKT2 and at AKT1 were 5.00 to 6.00, at least 6.00 and at least 6.00, respectively.
`NC1(c2ccc(-c3c(-c4ccccc4)oc4c(ccc5nc[nH]c54)c3=O)cc2)CCC1` [Example 45, 7-[4-(1-Amino-cyclobutyl)-phenyl]-8-phenyl-1H-chromeno[7,8-d]imidazol-6-one.TFA]: the pIC50 on AKT3 is 5.00 to 6.00; on AKT2, at least 6.00; on AKT1, 5.00 to 6.00.
As to `Cn1cnc2c3oc(-c4ccccc4)c(-c4ccc(C5(N)CCC5)cc4)c(=O)c3cc(Cl)c21` [Example 62, 7-[4-(1-Amino-cyclobutyl)-phenyl]-4-chloro-3-methyl-8-phenyl-3H-chromeno[7,8-d]imidazol-6-one hydrochloride], the pIC50 at AKT3, on AKT2 and on AKT1 was at least 6.00 in each case.
Regarding `Cn1cc2ccc3c(=O)c(-c4ccc(C5(N)CCC5)cc4)c(-c4ccccc4)oc3c2n1` [Example 59, 7-[4-(1-Amino-cyclobutyl)-phenyl]-2-methyl-8-phenyl-2H-9-oxa-1,2-diaza-cyclopenta[a]naphthalen-6-one], the figures for the pIC50 at AKT3, on AKT2 and at AKT1 were 5.00 to 6.00, at least 6.00 and at least 6.00, respectively.
Turning to `N#Cc1ccc2oc(-c3ccccc3)c(-c3ccc(C4(N)CCC4)cc3)c(=O)c2c1` [Example 21, 3-[4-(1-Amino-cyclobutyl)-phenyl]-4-oxo-2-phenyl-4H-chromene-6-carbonitrile], the pIC50 at AKT3 was below 5.00; on AKT2, 5.00 to 6.00; on AKT1 it was 5.00 to 6.00.
Consider `COc1ccc2c(=O)c(-c3ccc(C4(N)CCC4)cc3)c(-c3ccccc3)oc2c1` [Example 14], for which the pIC50 was below 5.00 on AKT3, 5.00 to 6.00 at AKT2 and 5.00 to 6.00 at AKT1.
As to `NC1(c2ccc(-c3c(-c4ccccc4)oc4c(-c5cn[nH]c5)nccc4c3=O)cc2)CCC1` [Example 80, 3-[4-(1-Amino-cyclobutyl)-phenyl]-2-phenyl-8-(1H-pyrazol-4-yl)-pyrano[2,3-c]pyridin-4-one hydrochloride], the pIC50 on AKT3, on AKT2 and on AKT1 was at least 6.00 each time.

(Values after patent US8546376B2, “Pharmaceutical compounds” (Almac Discovery Limited, priority 2009, dated 2013).)
